According to the NIST ThermoML archive (doi:10.1021/je800571y):
Numbers after ± are expanded uncertainties.

Assay: xn = mol fraction of the nth substance listed
Conditions: 101 kPa, Liquid

CCC(C)=O [butanone] + CC(C)CO
Conditions | mass density, 303.15 K [kg/m3] | mass density, 308.15 K [kg/m3] | mass density, 313.15 K [kg/m3] | viscosity, 303.15 K [mPa·s] | viscosity, 308.15 K [mPa·s] | viscosity, 313.15 K [mPa·s]
x1 = 0.0684 | – | 790.04 ± 1.1 | 786.54 ± 1.1 | – | 1.913 ± 0.35 | 1.625 ± 0.3
x1 = 0.1365 | – | 790.03 ± 1.1 | 786.39 ± 1.1 | – | 1.534 ± 0.29 | 1.33 ± 0.25
x1 = 0.2044 | – | 790 ± 1.1 | 786.22 ± 1.1 | – | 1.193 ± 0.23 | 1.074 ± 0.21
x1 = 0.2721 | – | 789.98 ± 1.1 | 786.06 ± 1.1 | – | 0.9579 ± 0.19 | 0.8538 ± 0.17
x1 = 0.3395 | – | 789.95 ± 1.1 | 785.89 ± 1.1 | – | 0.7612 ± 0.16 | 0.6894 ± 0.14
x1 = 0.4066 | – | 789.92 ± 1.1 | 785.73 ± 1.1 | – | 0.6222 ± 0.13 | 0.5674 ± 0.12
x1 = 0.4735 | – | 789.89 ± 1.1 | 785.56 ± 1.1 | – | 0.5176 ± 0.11 | 0.46 ± 0.1
x1 = 0.5402 | – | 789.87 ± 1.1 | 785.4 ± 1.2 | 0.4663 ± 0.11 | 0.4456 ± 0.1 | 0.3948 ± 0.093
x1 = 0.6066 | 794.49 ± 1.1 | 789.85 ± 1.1 | 785.23 ± 1.2 | 0.4135 ± 0.096 | 0.4102 ± 0.096 | 0.34 ± 0.084
x1 = 0.6727 | 794.53 ± 1.1 | 789.83 ± 1.1 | 785.08 ± 1.2 | 0.3743 ± 0.09 | 0.3752 ± 0.09 | 0.3138 ± 0.079
x1 = 0.7387 | 794.58 ± 1.1 | 789.82 ± 1.2 | 784.92 ± 1.2 | 0.3713 ± 0.089 | 0.3573 ± 0.087 | 0.2909 ± 0.075
x1 = 0.8044 | 794.63 ± 1.1 | 789.81 ± 1.2 | 784.77 ± 1.2 | 0.3607 ± 0.087 | 0.3498 ± 0.085 | 0.2754 ± 0.072
x1 = 0.8698 | 794.68 ± 1.1 | 789.8 ± 1.2 | 784.62 ± 1.2 | 0.3443 ± 0.084 | 0.3334 ± 0.083 | 0.28 ± 0.073
x1 = 0.935 | 794.74 ± 1.1 | 789.79 ± 1.2 | 784.47 ± 1.2 | 0.3135 ± 0.079 | 0.3005 ± 0.077 | 0.2769 ± 0.073
x1 = 1 | 794.81 ± 1.1 | 789.78 ± 1.2 | 784.32 ± 1.2 | 0.2666 ± 0.071 | 0.2601 ± 0.07 | 0.2545 ± 0.069
